Patent US5075499A, “Calcium supplementation by dicalcium citrate-lactate” (Board of Regents, The University of Texas System, priority 1988, dated 1991)

Experiments:
[1] = osteoporosis prone postmenopausal women; cited from earlier work
[2] = cited from earlier work; for effectiveness in raising urinary citrate compared with tricalcium dicitrate: vs tricalcium dicitrate
[3] = cited from earlier work
[4] = Bulk density of the dried granular composition; assay type: physicochemical
Description: 38.4 grams of citric acid powder and 40 grams of calcium carbonate were thoroughly mixed in a large beaker. 36 grams of lactic acid, 50 weight percent solution, was slowly added with rapid stirring. 40 grams of water was then introduced slowly in small portions, each portion was added after the CO2 evolution slowed or ceased. After drying, the material was sized and found to have a bulk density greater than 1.1 g/cc. Bulk density was determined by an Archimedean method. This dense granular dicalcium citrate-lactate was subjected to compression tableting to form tablets containing 10 meq (200 milligrams) of calcium, and 7.5 meq (472 milligrams) of citrate, with a size of 0.29 (7.47 millimeters) inch by 0.74 (1.9 centimeters) inch.
The dicalcium citrate-lactate tablets of the present invention were also produced on a large scale. 38.4 kilograms of citric acid powder and calcium carbonate were placed in a Colton 7 cubic ft. ribbon mixer and blended for 2 minutes. Thirty six kilograms of the lactic acid, 50 weight percent solution, were added in approximately three equal portions, 3 minutes apart with continuous mixing. Water (40 kilograms) was added in approximately four equal portions 2-3 minutes apart with continuous mixing. Mixing continued for 10 minutes. The resultant granular and lumpy material was passed through a Fitzmill, knives forward, with no screen, trayed and dried at 212° F.-221° F. (100° C.-105° C.) for three hours. The dried product was sized and its bulk density was determined to be greater than 1.1 g/cc. The sizing was done using a Fitzmill Model No. 6 with a 31262AA screen.
The procedure previously described in Example 2 was followed with the exception of calcium carbonate being replaced by calcium oxide. Dicalcium citrate-lactate having a bulk density of greater than 0.7 g/cc was produced.
The procedure previously described in Example 2 was followed with the exception of calcium carbonate being replaced by calcium hydroxide. Calcium citrate lactate having a bulk density of greater than 0.8 g/cc was produced.

[5] = cited from earlier work; remark: listed apart in the source
[6] = Calcium absorption from oral tablets (increment in urinary calcium during the second two hours, Example 5); details: 400 mg elemental calcium, ten normal volunteers, SD
Description: Calcium absorption was measured from the increment in urinary calcium during the second two hours following the administration of the oral calcium tablets.
The calcium absorption was measured from the increment in urinary calcium during the second two hours following oral calcium load, expressed as mg calcium/dl glomerular filtrate (GF).

**Q.** For `O=C(O)O` [calcium carbonate], which “prevention of further bone losses” value [1] is on record?
**A.** to a lesser extent

**Q.** For `O=C(O)[C@H](O)[C@@H](O)[C@H](O)[C@H](O)CO` [calcium gluconate], which “effectiveness in raising urinary citrate compared with tricalcium dicitrate” value [2] is on record?
**A.** not as effective as tricalcium dicitrate

**Q.** And the “aqueous solubility” value [3]?
**A.** high aqueous solubility

**Q.** For `CC(O)C(=O)O` (stereo not drawn) [calcium lactate], which “effectiveness in raising urinary citrate compared with tricalcium dicitrate” value [2] is on record?
**A.** not as effective as tricalcium dicitrate

**Q.** With `CC(O)C(=O)[O-].O=C([O-])CC(O)(CC(=O)[O-])C(=O)[O-].[Ca+2].[Ca+2]` [dicalcium citrate-lactate] as the compound, how does the bulk density ([4]; from calcium carbonate, large batch (Example 2)) read?
**A.** greater than 1.1 g/cc

**Q.** What about the bulk density ([4]; from calcium carbonate, small batch (Example 1), Archimedean method) of the same compound?
**A.** greater than 1.1 g/cc

**Q.** And the bulk density ([4]; from calcium hydroxide, large batch (Example 4))?
**A.** greater than 0.8 g/cc

**Q.** What about the bulk density ([4]; from calcium oxide, large batch (Example 3)) of the same compound?
**A.** greater than 0.7 g/cc

**Q.** Which results are given for `O=C(O)CC(O)(CC(=O)O)C(=O)O` [tricalcium dicitrate]?
**A.** precipitation out of simulated duodenal juice [5]: did not precipitate out of simulated duodenal juice; urinary citrate ([2]; Harvey, Zobitz and Pak 1985): increased urinary citrate; calcium absorption (increment in urinary calcium) [6]: 0.044±0.051 mg/dl GF

**Q.** With estrogen as the compound, how does the “prevention of further bone losses” value [1] read?
**A.** further bone losses in osteoporosis prone postmenopausal women may be prevented
